Data as given in patent US20040138488A1, “Benzene-1 2-diol mannich bases ligands polymers and method of selective metal ions removal” (priority 2001, published 2004).

Compound	melting point
COc1cccc(CN(C)CCN(C)Cc2cccc(OC)c2O)c1O [Example 12, 6,6′-Dimethoxy-2,2′-[ethylenebis(methyliminomethylene)]diphenol]	115 to 116 °C
COc1cccc(CN2CCN(Cc3cccc(OC)c3O)CC2)c1O [Example 15, 6,6′-Dimethoxy-2,2′-(piperazine-1,4-diylbismethylene)diphenol]	197 to 198 °C
CCN(CCN(CC)Cc1cccc(OC)c1O)Cc1cccc(OC)c1O [Example 13, 6,6′-Dimethoxy-2,2′-[ethylenebis(ethyliminomethylene)]diphenol]	71 to 72 °C
CN(CCCN(C)Cc1cccc(O)c1O)Cc1cccc(O)c1O [Example 19, 3,3′-[Propane-1,3-diylbis(methyliminomethylene)]di(catechol)]	130 °C (dec.)
COc1cccc(CN(C)CCCN(C)Cc2cccc(OC)c2O)c1O [Example 14, 6,6′-Dimethoxy-2,2′-[propane-1,3-diylbis(methyliminomethylene)]diphenol]	78 to 79 °C
Oc1cccc(CN2CCN(Cc3cccc(O)c3O)CC2)c1O [Example 20, 3,3′-(Piperazine-1,4-diylbismethylene)di(catechol)]	210 °C (dec.)
